We go through 3 molecules from PMC7400577 (Scientific Reports, 2020).

Numbering of substitutions follows the chain as printed. pEC50, pIC50: −log10 of the molar value. Read-outs that look alike come from different tables or passages of the source.

Experiment [1] has as its target T1, hBGT1 (Homo sapiens, UniProt P48065).
T1 construct: expressed in transfected cells
T1 sequence (P48065 1-614): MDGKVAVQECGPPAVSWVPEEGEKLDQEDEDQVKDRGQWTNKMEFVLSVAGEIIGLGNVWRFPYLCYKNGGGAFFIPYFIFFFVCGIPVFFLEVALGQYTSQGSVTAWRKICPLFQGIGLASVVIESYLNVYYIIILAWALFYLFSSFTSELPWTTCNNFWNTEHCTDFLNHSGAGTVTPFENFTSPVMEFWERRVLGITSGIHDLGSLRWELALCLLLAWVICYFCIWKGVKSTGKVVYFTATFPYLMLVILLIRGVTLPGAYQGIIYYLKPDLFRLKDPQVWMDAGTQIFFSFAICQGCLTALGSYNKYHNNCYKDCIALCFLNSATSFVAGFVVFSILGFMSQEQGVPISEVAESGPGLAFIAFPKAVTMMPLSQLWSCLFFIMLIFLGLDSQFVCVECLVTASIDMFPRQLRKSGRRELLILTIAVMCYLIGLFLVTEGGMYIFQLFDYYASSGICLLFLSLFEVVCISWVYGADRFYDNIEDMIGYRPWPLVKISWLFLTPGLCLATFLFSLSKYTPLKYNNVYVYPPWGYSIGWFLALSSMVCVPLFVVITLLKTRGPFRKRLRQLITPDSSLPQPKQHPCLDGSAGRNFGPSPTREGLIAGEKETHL
It counts as cell-based. As to the method:
(§1) CHO Flp-In and tsA201 cells were cultured at 37 °C in a humidified atmosphere of […] and 5% CO2. As previously described[38],[63], CHO Flp-In cells stably expressing the hGATs were cultured in Ham’s F12 Nutrient Mix supplemented with 10% FBS, 1% P/S and plasmocin (5 µg/mL) under the selection pressure of hygromycin B (200 µg/mL). DMEM with GlutaMAX-I supplemented with 10% FBS and 1% P/S was used as growth medium for the tsA201 cells, which were transfected with DNA constructs using PolyFect according to the manufacturer’s specifications (Qiagen, West Sussex, UK), but with half of the recommended reagent volumes.
(§2) Uptake assays were performed in PDL-coated white 96-well polystyrene cell culture microplates (PerkinElmer, Boston, MA, USA) as previously described[38],[63]. […] Assay buffer was HBSS supplemented with 20 mM HEPES, 1 mM CaCl2 and 1 mM MgCl2, pH 7.4. […] After termination, scintillation liquid (MicroScint-20, PerkinElmer) was added and the radioactivity measured in a TopCount NXT Microplate Scintillation Counter (PerkinElmer).
(§3) Data analysis and statistical evaluation were performed in GraphPad Prism 7.02 (GraphPad Software, San Diego, CA, USA). Concentration-uptake inhibition curves, generated from the radioligand-based uptake assays, were fitted by non-linear regression, using the equation for sigmoidal concentration–response with variable slope: Y = Bottom + (Top–Bottom)/(1 + 10^((logIC50 − X) × HillSlope)), where Y is the response, X is the logarithm of the concentration, Top and Bottom are the plateaus in same units as Y, logIC50 is the concentration giving a response halfway between Bottom and Top, and the HillSlope is the steepness of the curve. For the substrate concentration–response curves generated from the FMP assay, the same equation was used but with logEC50 instead for logIC50. Unless otherwise stated, data are presented as means ± S.E.M. of at least three independent pooled experiments performed in triplicates.

Experiment [2] addresses T2, hGAT3 (Homo sapiens, UniProt P48066).
T2 construct: expressed in transfected cells
T2 sequence (P48066 1-632): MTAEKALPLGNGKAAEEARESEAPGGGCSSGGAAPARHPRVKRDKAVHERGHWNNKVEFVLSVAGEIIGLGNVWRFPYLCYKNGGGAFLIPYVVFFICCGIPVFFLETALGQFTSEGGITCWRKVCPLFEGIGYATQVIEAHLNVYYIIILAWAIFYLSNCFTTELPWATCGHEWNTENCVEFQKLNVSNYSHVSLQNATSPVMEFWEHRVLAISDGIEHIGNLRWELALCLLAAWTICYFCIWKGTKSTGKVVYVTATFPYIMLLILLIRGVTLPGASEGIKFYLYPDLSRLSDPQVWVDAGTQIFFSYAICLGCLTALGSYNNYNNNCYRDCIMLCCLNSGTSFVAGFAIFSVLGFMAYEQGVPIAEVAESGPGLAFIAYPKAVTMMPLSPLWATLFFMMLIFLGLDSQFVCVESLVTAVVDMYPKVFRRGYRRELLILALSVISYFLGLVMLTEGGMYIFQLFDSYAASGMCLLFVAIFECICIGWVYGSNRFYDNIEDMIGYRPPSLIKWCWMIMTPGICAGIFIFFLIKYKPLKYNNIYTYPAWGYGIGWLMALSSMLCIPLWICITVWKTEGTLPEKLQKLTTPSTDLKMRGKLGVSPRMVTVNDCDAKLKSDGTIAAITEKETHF
The experiment can be described thus: [3H]GABA uptake inhibition at hGAT3 stably expressed in CHO Flp-In cells. It is filed as cell-based. The settings on record: 30 nM [3H]GABA, 3 min, CHO Flp-In cells stably expressing hGAT3. As to the method:
as §1, §2, §3

The target in experiment [3] is T3, hGAT2 (Homo sapiens, UniProt Q9NSD5).
T3 construct: expressed in transfected cells
T3 sequence (Q9NSD5 1-602): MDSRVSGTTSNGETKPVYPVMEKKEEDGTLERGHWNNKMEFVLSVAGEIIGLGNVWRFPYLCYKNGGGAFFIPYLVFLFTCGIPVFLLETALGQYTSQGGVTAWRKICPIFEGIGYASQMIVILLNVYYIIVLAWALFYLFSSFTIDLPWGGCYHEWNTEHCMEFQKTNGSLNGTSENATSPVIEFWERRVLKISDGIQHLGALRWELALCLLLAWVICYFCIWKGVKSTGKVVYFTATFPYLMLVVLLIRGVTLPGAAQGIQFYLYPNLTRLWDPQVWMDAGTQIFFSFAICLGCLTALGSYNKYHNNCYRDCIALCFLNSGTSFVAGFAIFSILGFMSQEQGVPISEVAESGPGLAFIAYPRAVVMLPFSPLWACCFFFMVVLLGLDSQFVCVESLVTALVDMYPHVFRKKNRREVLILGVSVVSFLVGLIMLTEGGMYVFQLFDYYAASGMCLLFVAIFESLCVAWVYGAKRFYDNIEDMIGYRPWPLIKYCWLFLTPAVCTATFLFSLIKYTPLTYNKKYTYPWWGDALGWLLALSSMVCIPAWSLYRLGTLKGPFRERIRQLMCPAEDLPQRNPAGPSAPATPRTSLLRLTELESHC
The experiment can be described thus: [3H]GABA uptake inhibition at hGAT2 stably expressed in CHO Flp-In cells. It is filed as cell-based. The settings on record: 30 nM [3H]GABA, 3 min, CHO Flp-In cells stably expressing hGAT2; read-out: IC50 hGAT2. On the procedure:
as §1, §2, §3

In experiment [4] the target is T4, hGAT1 (Homo sapiens, UniProt P30531).
T4 construct: expressed in transfected cells
The experiment is described as follows: [3H]GABA uptake inhibition at hGAT1 stably expressed in CHO Flp-In cells. It counts as cell-based. The note with it: 30 nM [3H]GABA, 3 min, CHO Flp-In cells stably expressing hGAT1; read-out: IC50 hGAT1. On the procedure: as §1, §2, §3

In experiment [5] the target is T1, hBGT1. The experiment can be described thus: FLIPR Membrane Potential (FMP) assay at hBGT1 stably expressed in CHO Flp-In cells. It is filed as cell-based. On the procedure: The fluorescence-based FMP assay was performed as previously described, for the functional characterization of the electrogenic transport of substrates via hBGT1. Briefly, CHO Flp-In cells stably expressing hBGT1 or hGAT1 were plated (~ 50,000 cells/well) into black PDL-coated 96-well plates with clear bottom (VWR, Radnor, PA, USA). The next day, the growth medium was removed, and cells were washed once with HBSS assay buffer and FMP Blue Dye (Molecular Devices, Crawley, UK), added, and incubated. Ligands were added via the NOVOStar plate reader (BMG Labtech GmbH, Offenburg, Germany), preheated to 37 °C, approximately 10 min before reading of the cell plate. The fluorescence signals were measured for 33.8 s upon ligand addition using an emission and excitation wavelength of […], respectively. Electrogenic transport of substrates via hBGT1 will lead to an influx of the negatively charged FMP Blue dye that will bind to intracellular proteins and lipids resulting in an increase in the fluorescence signal.
as §3

For experiment [6], the system named is BGT1. The note with it: competitive BGT1 inhibitor; cited from earlier work.
Experiment [7] has as its target T5, hGAT3 L314Q (Homo sapiens, UniProt P48066, L314Q).
T5 construct: expressed in transfected cells; host or cells: tsA201 cells, transient (PolyFect), pcDNA5/FRT vector
T5 sequence (P48066 1-632 L314Q): T2 sequence (P48066 1-632) with L314Q
The experiment can be described thus: [3H]GABA uptake inhibition at hGAT3 L314Q transiently expressed in tsA201 cells. It counts as cell-based. The settings on record: 30 nM [3H]GABA, transient expression.

Experiment [8] deals with T6, hGAT3 wt (Homo sapiens, UniProt P48066).
T6 construct: expressed in transfected cells; host or cells: tsA201 cells, transient (PolyFect), pcDNA5/FRT vector
T6 sequence (P48066 1-632): T2 sequence (P48066 1-632)
The experiment is described as follows: [3H]GABA uptake inhibition at wt hGAT3 transiently expressed in tsA201 cells. It counts as cell-based. The note with it: 30 nM [3H]GABA, transient expression.

T4 sequence (P30531 whole entry): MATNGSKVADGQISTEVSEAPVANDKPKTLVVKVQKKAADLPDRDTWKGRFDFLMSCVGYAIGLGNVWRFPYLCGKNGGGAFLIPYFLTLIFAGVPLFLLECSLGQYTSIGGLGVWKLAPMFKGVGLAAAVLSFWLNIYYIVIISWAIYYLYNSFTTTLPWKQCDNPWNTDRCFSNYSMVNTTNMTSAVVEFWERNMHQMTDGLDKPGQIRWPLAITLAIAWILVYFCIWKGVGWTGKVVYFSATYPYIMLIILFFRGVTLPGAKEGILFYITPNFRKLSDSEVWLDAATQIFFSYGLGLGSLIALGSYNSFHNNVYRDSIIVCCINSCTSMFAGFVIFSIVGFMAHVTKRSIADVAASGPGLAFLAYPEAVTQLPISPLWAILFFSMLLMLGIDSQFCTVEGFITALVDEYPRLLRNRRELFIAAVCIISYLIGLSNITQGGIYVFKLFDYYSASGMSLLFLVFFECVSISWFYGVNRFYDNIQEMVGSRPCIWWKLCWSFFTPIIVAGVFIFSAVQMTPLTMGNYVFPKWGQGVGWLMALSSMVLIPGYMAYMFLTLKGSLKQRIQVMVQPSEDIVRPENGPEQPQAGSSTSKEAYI

For `NC1=NCC(C(=O)O)CN1Cc1ccc(-c2ccccc2)cc1` (stereo not drawn) [compound 5], the negative-log IC50 (pIC50) was 4.30 in experiment [1] (30 nM [3H]GABA, 3 min, CHO Flp-In cells stably expressing hBGT1, read-out: IC50 hBGT1); 3.40 in experiment [2] (read-out: IC50 hGAT3); 3.42 in experiment [3]; 2.98 in experiment [4]. Moreover, in experiment [1] ([3H]GABA uptake, CHO Flp-In cells), the “decrease of hBGT1 inhibitory potency compared to ATPCA” value is given as 20–65 fold. In addition, the “subtype-selectivity for hBGT1 over the other hGATs” value in experiment [1] (estimated from [3H]GABA uptake IC50 values, CHO Flp-In cells) is on record as “at least 7 times”. The IC50 in experiment [2] (read-out: pIC50 ± S.E.M. hGAT3 (converted)) was 380 µM. The “substrate character at hBGT1 in FMP assay” value in experiment [5] (concentration-dependent increase in fluorescence signal) is reported as “substrates for hBGT1”. In experiment [5] (hBGT1 stably expressed in CHO Flp-In cells, FMP assay), the “Mean Rmax as % of GABA Rmax ± S.E.M.” value is 73 ± 2.8 % of GABA Rmax. In experiment [5] (hBGT1 stably expressed in CHO Flp-In cells, three independent experiments), the pEC50 is 3.71.

Turning to `N[C@@]12CC[C@H](C(=O)O)[C@@H]1C2` [compound 1], in experiment [6], the pIC50 is 6.23.

In the case of `NCCCC(=O)O` [GABA, γ-Aminobutyric acid, reference compound], the pIC50 is 5.28 in experiment [7] (read-out: IC50 GAT3 L314Q) and 5.09 in experiment [8] (read-out: IC50 GAT3 wt). The IC50 in experiment [7] (read-out: pIC50 ± S.E.M. GAT3 L314Q (converted)) was 5.13 µM; in experiment [8] (read-out: pIC50 ± S.E.M. GAT3 wt (converted)), 7.94 µM.
